Results: ChEMBL document CHEMBL5291721, “A preclinical secondary pharmacology resource illuminates target-adverse drug reaction associations of marketed drugs” (Nat Commun, 2023)

Experiments:
D(3) dopamine receptor = D(3) dopamine receptor (Homo sapiens, UniProt P35462)
Mu-type opioid receptor [1] = biological target: T1, Mu-type opioid receptor (Homo sapiens, UniProt P35372); assay: biochemical; type: functional
Cannabinoid receptor 1 = Cannabinoid receptor 1 (Homo sapiens, UniProt P21554)
[2] = biological target: Beta-2 adrenergic receptor (Homo sapiens, UniProt P07550)
Beta-2 adrenergic receptor, sequence (P07550 whole entry): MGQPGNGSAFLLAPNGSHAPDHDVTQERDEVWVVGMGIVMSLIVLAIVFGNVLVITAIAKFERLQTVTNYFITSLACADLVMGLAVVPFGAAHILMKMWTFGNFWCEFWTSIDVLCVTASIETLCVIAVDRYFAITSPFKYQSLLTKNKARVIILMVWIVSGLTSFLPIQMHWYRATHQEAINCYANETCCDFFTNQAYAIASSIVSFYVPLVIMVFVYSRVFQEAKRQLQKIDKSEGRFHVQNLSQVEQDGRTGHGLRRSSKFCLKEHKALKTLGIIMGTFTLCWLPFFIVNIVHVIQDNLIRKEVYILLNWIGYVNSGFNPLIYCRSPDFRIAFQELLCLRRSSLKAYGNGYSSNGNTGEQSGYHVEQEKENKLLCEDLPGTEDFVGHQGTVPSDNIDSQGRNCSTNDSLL

[3] = biological target: T2, Muscarinic acetylcholine receptor M1 (Homo sapiens, UniProt P11229); type: functional
T2 sequence (P11229 whole entry): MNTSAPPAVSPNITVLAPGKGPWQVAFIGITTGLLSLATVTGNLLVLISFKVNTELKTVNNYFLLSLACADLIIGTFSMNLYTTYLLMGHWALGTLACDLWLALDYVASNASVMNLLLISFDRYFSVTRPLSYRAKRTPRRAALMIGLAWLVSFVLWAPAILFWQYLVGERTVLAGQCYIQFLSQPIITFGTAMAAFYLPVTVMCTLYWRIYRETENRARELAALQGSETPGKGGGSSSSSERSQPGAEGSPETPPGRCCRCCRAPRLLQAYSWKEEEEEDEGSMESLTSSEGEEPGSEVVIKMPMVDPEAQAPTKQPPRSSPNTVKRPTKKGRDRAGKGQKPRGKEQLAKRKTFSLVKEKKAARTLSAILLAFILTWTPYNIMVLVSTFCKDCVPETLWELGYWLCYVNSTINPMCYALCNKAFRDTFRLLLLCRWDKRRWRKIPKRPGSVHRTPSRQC

[4] = biological target: 3',5'-cyclic-AMP phosphodiesterase 4D (Homo sapiens, UniProt Q08499); type: functional
3',5'-cyclic-AMP phosphodiesterase 4D, sequence (Q08499 whole entry): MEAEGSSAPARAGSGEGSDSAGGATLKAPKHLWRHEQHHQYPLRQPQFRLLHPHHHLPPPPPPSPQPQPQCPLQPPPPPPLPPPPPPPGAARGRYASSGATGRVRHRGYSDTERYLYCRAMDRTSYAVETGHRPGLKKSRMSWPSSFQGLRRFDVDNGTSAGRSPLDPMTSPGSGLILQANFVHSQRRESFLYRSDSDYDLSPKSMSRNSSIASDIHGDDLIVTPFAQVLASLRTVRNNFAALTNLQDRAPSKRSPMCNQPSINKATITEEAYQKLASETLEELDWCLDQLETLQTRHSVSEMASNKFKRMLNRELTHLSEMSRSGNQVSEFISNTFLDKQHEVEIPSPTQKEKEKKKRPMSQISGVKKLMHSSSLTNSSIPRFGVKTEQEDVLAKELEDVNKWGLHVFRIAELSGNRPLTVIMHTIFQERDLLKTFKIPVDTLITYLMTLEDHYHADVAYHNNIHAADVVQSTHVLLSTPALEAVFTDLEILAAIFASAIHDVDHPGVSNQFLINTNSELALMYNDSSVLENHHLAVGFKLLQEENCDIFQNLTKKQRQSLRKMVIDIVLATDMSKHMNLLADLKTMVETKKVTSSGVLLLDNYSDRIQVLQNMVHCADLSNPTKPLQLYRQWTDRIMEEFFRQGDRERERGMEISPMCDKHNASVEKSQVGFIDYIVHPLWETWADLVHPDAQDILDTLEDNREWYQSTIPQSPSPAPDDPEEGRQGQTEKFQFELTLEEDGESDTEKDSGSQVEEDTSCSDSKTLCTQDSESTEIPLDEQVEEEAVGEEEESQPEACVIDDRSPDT

[5] = biological target: T3, Type-1 angiotensin II receptor (Homo sapiens, UniProt P30556)
T3 sequence (P30556 whole entry): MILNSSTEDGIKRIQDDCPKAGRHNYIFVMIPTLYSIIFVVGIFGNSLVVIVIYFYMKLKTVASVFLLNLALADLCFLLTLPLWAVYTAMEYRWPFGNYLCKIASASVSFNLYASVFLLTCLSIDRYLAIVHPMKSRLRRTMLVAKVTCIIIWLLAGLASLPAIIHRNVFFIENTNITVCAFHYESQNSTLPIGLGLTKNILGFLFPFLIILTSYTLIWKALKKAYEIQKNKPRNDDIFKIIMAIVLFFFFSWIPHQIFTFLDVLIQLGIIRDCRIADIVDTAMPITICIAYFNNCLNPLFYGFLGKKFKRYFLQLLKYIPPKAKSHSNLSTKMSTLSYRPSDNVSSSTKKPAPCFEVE

[6] = biological target: Voltage-dependent L-type calcium channel subunit alpha-1C (Rattus norvegicus, UniProt P22002); type: functional
[7] = biological target: T4, 5-hydroxytryptamine receptor 3A (Homo sapiens, UniProt P46098); type: functional
T4 sequence (P46098 whole entry): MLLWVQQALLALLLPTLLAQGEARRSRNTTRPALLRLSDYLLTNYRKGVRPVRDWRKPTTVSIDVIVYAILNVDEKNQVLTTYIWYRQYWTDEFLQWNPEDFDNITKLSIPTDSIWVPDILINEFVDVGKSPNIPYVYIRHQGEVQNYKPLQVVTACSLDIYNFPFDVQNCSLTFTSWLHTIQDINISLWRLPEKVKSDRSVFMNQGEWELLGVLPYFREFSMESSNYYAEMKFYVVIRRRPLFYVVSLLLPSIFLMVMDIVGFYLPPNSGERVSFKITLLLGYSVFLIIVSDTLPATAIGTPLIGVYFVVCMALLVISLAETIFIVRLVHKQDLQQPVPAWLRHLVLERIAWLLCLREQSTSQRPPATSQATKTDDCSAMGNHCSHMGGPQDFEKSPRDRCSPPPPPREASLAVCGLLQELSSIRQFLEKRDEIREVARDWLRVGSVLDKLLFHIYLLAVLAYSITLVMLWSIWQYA

[8] = biological target: Sodium-dependent noradrenaline transporter (Homo sapiens, UniProt P23975)
Sodium-dependent noradrenaline transporter, sequence (P23975 whole entry): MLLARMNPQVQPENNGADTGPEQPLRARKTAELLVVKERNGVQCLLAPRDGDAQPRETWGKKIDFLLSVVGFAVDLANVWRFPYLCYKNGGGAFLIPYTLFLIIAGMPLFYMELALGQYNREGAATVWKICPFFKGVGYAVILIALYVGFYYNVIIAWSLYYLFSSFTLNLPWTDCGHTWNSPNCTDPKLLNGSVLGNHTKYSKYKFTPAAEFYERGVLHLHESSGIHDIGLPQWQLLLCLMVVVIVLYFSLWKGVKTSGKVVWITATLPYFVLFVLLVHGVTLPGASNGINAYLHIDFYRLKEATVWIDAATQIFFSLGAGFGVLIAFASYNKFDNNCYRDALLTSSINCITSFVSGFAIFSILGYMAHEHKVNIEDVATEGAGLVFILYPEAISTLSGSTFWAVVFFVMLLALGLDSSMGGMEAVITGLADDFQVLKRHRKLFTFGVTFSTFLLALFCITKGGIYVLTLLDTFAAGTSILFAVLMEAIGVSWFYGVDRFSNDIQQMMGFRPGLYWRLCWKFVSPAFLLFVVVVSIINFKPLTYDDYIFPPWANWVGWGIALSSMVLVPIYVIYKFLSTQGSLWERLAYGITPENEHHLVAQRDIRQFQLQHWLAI

Adenosine receptor A1 = biological target: T5, Adenosine receptor A1 (Homo sapiens, UniProt P30542)
T5 sequence (P30542 whole entry): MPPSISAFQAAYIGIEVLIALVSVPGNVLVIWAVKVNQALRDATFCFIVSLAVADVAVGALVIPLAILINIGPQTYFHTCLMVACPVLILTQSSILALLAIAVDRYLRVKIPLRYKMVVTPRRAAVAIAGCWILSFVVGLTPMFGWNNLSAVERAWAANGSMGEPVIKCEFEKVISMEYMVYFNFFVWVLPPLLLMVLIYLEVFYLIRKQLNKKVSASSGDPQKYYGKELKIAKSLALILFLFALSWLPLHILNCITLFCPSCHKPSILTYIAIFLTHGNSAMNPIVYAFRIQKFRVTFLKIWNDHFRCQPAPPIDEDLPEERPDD

[9] = biological target: T6, 5-hydroxytryptamine receptor 2C (Homo sapiens, UniProt P28335)
T6 sequence (P28335 whole entry): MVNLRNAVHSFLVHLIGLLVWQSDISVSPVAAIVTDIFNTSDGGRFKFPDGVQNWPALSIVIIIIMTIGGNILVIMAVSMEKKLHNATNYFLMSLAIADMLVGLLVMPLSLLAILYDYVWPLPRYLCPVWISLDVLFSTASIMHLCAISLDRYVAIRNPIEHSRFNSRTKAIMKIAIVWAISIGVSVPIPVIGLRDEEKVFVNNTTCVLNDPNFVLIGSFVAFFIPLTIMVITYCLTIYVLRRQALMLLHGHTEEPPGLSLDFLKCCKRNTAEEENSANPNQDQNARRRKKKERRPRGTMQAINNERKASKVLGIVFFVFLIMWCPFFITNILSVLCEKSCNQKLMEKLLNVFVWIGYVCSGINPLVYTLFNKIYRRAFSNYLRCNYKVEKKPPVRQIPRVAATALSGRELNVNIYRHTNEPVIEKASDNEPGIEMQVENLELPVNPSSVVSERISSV

Mu-type opioid receptor [10] = biological target: T1, Mu-type opioid receptor
Histamine H3 receptor = Histamine H3 receptor (Homo sapiens, UniProt Q9Y5N1)
Histamine H3 receptor, sequence (Q9Y5N1 whole entry): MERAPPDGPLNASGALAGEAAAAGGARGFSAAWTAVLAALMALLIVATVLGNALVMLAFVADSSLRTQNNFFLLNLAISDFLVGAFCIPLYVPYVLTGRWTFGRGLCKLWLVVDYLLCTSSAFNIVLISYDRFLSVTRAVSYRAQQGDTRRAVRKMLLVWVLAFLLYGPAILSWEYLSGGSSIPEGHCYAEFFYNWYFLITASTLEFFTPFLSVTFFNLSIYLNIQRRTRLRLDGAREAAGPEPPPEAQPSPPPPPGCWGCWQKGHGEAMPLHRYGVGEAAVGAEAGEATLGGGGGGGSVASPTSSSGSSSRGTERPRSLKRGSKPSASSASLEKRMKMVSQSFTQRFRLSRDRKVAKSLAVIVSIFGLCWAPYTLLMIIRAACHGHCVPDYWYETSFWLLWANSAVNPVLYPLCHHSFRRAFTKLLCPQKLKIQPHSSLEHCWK
Note: assay procedure not described here.

Cannabinoid receptor 1, sequence (P21554 whole entry): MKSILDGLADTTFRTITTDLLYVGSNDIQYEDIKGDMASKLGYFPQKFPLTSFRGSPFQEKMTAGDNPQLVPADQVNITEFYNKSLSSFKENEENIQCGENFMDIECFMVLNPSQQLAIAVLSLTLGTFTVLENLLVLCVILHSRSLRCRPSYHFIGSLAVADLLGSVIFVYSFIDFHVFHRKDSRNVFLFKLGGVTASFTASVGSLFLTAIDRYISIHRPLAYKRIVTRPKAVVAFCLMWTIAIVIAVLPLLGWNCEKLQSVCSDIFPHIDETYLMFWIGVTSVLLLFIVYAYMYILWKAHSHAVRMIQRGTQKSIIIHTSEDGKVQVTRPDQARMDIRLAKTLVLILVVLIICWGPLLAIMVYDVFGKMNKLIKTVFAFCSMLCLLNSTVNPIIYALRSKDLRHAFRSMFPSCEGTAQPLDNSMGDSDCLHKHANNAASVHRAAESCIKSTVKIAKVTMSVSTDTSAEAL
T1 sequence (P35372 whole entry): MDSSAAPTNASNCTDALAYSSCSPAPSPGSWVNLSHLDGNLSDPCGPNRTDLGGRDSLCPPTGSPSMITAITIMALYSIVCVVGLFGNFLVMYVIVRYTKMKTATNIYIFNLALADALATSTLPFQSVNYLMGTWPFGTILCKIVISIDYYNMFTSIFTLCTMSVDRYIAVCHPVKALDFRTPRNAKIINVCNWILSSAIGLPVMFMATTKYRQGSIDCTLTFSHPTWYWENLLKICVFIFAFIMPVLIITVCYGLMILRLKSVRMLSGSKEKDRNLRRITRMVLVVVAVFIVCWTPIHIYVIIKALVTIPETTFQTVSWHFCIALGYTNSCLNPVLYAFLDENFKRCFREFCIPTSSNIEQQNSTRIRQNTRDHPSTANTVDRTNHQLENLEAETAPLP
D(3) dopamine receptor, sequence (P35462 whole entry): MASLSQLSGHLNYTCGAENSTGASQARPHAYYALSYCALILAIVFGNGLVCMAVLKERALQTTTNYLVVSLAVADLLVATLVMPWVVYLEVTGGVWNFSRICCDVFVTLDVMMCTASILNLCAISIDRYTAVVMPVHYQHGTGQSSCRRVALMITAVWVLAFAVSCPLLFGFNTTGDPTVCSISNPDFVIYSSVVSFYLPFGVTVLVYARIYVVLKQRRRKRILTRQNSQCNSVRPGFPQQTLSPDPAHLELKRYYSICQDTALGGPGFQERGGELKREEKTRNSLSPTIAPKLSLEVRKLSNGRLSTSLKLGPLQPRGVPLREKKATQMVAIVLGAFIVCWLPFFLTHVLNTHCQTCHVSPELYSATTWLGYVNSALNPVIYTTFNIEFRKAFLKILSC

SMILES | AC50 (D(3) dopamine receptor) [µM] | AC50 (Mu-type opioid receptor [1]) [µM] | AC50 (Cannabinoid receptor 1) [µM] | AC50 [2] [µM] | AC50 [3] [µM] | AC50 [4] [µM] | AC50 [5] [µM] | AC50 [6] [µM] | AC50 [7] [µM] | AC50 [8] [µM] | AC50 (Adenosine receptor A1) [µM] | AC50 [9] [µM] | AC50 (Mu-type opioid receptor [10]) [µM] | AC50 (Histamine H3 receptor) [µM]
O=C(O)CCCCCCCC(=O)O [AZELAIC ACID] | > 30 | > 30 | > 10 | > 10 | > 10 | > 30 | > 10 | > 10 | > 30 | > 10 | > 10 | > 30 | > 30 | –
C=CCC1(CC(C)C)C(=O)NC(=O)NC1=O [BUTALBITAL] | > 30 | > 30 | > 10 | > 10 | > 30 | > 30 | > 30 | > 10 | > 30 | > 10 | > 10 | > 30 | > 30 | –
O=C(O)C1=C(CSc2nnnn2CS(=O)(=O)O)CS[C@@H]2[C@H](NC(=O)[C@H](O)c3ccccc3)C(=O)N12 [CEFONICID] | > 30 | > 30 | > 30 | > 30 | > 30 | > 30 | > 30 | > 30 | > 30 | > 30 | > 30 | > 30 | – | > 30
Cc1cc(O)c(C(=O)N[C@@H](C(=O)N[C@@H]2C(=O)N3C(C(=O)O)=C(CSc4nnnn4C)CS[C@H]23)c2ccc(O)cc2)cn1 [CEFPIRAMIDE] | > 30 | > 30 | > 30 | > 30 | > 30 | > 30 | > 30 | > 30 | > 30 | > 30 | > 30 | > 30 | – | > 30
Nc1nc(/C(=C/CC(=O)O)C(=O)N[C@@H]2C(=O)N3C(C(=O)O)=CCS[C@H]23)cs1 [CEFTIBUTEN] | > 30 | > 30 | > 30 | > 30 | > 30 | > 30 | > 30 | > 30 | > 30 | > 30 | > 30 | > 30 | – | > 30
C[C@]1(O)CC[C@H]2[C@@H]3CCC4=CC(=O)CC[C@]4(C)[C@@]3(F)[C@@H](O)C[C@@]21C [FLUOXYMESTERONE] | > 30 | > 30 | > 10 | > 10 | > 30 | > 30 | > 10 | > 10 | > 30 | > 10 | > 10 | > 30 | > 30 | –
Cc1ccc(S(=O)(=O)NC(=O)NN2CC3CCCC3C2)cc1 (configuration not stated) [GLICLAZIDE] | > 30 | > 30 | > 10 | > 10 | – | > 30 | > 10 | > 10 | > 30 | > 10 | > 10 | > 30 | > 30 | –
COC(=O)C1=C(C)NC(C)=C(C(=O)OC(C)(C)CN(C)CCC(c2ccccc2)c2ccccc2)C1c1cccc([N+](=O)[O-])c1 (configuration not stated) [LERCANIDIPINE] | > 30 | > 30 | 6.6 | > 30 | > 30 | > 30 | > 30 | 0.046 | > 30 | > 30 | > 30 | > 30 | – | –
CC(Oc1c(Cl)cccc1Cl)C1=NCCN1 (configuration not stated) [LOFEXIDINE] | > 30 | > 30 | > 30 | > 30 | > 30 | > 30 | > 30 | > 30 | > 30 | > 30 | > 30 | > 30 | – | > 30
CC(C)=CCC/C(C)=C/C=C/C(C)=C/C=C/C(C)=C/C=C/C=C(C)/C=C/C=C(C)/C=C/C=C(\C)CCC=C(C)C [LYCOPENE] | > 30 | > 30 | > 30 | > 30 | > 30 | > 30 | > 30 | > 30 | > 30 | > 30 | > 30 | > 30 | – | > 30
C[C@](N)(Cc1ccc(O)c(O)c1)C(=O)O [METHYLDOPA] | > 30 | > 30 | > 10 | > 10 | – | > 30 | > 10 | > 10 | > 30 | > 10 | > 30 | > 30 | > 30 | –
O=C(NCCN1CCOCC1)c1ccc(Cl)cc1 [MOCLOBEMIDE] | > 30 | > 30 | > 10 | > 10 | – | > 30 | > 10 | > 10 | > 30 | > 10 | > 10 | > 30 | > 30 | –
CCCN(CCC)C(=O)C(CCC(=O)O)NC(=O)c1ccccc1 (configuration not stated) [PROGLUMIDE] | > 30 | > 30 | > 10 | > 30 | – | > 30 | > 30 | > 10 | > 30 | > 30 | > 30 | > 30 | > 30 | > 30
C[C@]12CC[C@H]3[C@@H](CCC4=CC(=O)CC[C@@]43C)[C@@H]1CC[C@@H]2O [TESTOSTERONE] | > 30 | > 30 | > 10 | > 10 | – | > 30 | > 10 | > 10 | > 30 | > 10 | > 10 | > 30 | > 30 | –
